# Data published in patent publication US20250059188A1, “ARYLSULPHONAMIDE COMPOUNDS” (Anaxis Pharma Pty Ltd, priority 2021, published 2025).
# Legend:
# [1] = target: human RIPK1 (Homo sapiens (Human), UniProt Q13546); assay: KINOMEscan binding assay, human RIPK1; conditions: equilibrium dissociation constant
# Experimental: (§1) Binding affinity of the test compounds for human MLKL (full length), mouse MLKL (full length), human RIPK1 and human RIPK3 was determined using the KINOMEscan™ technology developed by DiscoverX (USA; http://www.discoverx.com). The assay was conducted according to manufacturer instructions.
# (§2) Kinase assays. For most assays, kinase-tagged T7 phage strains were grown in parallel in 24-well blocks in an E. coli host derived from the BL21 strain. E. coli were grown to log-phase and infected with T7 phage from a frozen stock (multiplicity of infection=0.4) and incubated with shaking at 32° C. until lysis (90-150 minutes). The lysates were centrifuged (6,000×g) and filtered (0.2 μm) to remove cell debris. The remaining kinases were produced in HEK-293 cells and subsequently tagged with DNA for qPCR detection. […] The liganded beads were blocked with excess biotin and washed with blocking buffer (SeaBlock (Pierce), 1% BSA, 0.05% Tween 20, 1 mM DTT) to remove unbound ligand and to reduce non-specific phage binding. […] All reactions were performed in polypropylene 384-well plates in a final volume of 20 μL. […] The kinase concentration in the eluates was measured by qPCR.
# (§3) An 11-point 3-fold serial dilution of each test compound was prepared in 100% DMSO at 100× final test concentration and subsequently diluted to 1× in the assay (final DMSO concentration=1%). Most Kos were determined using a compound top concentration=30,000 nM.
# (§4) KD for each test compound was calculated with a standard dose-response curve using the Hill equation (equation (1)): […]
# (§5) The Hill Slope was set to −1.
# (§6) Curves were fitted using a non-linear least square fit with the Levenberg-Marquardt algorithm.
# [2] = target: human RIPK3 (Homo sapiens (Human), UniProt Q9Y572); assay: KINOMEscan binding assay, human RIPK3; conditions: equilibrium dissociation constant
# Experimental: as §1, §2, §3, §4, §5, §6
# [3] = test system: U937 human histiocytic leukemia cell line; assay: Inhibition of TSQ induced necroptosis in U937 cells (CellTitre-Glo); conditions: Homo sapiens, U-937, TSQ cocktail (TNF, Smac mimetic, Q-VD-OPh), 48 hours, read-out: Inhibition of TSQ-induced necroptosis (IC50 cell-based assay)
# Experimental: Cellular Assay: Screening Compounds for Inhibition of TSQ Induced Necroptosis, 384 Well Plate Format.
# (§7) • Cell Line ID: U937 human histiocytic leukemia cell line. • Cell Concentration (cells/well): Final cell density is 20000 cells per well. • Cell growth medium: HT-RPMI medium+7.4% Fetal Bovine Serum (FBS). Cells are cultured in Corning 150 cm^2 tissue culture flasks with vented caps at 37° C./5% CO2. • Incubation: Plates were incubated at 37° C./5% CO2 in a humidified incubator for 48 hours following addition of compounds and death stimuli (TSQ cocktail). • Compound concentration: 36 μM starting concentration, 1:3 dilution, 10 point • DMSO final concentration (% v/v): 0.3%. Compounds in TSQ Cocktail (T: TNF; S: Smac Mimetic; Q: Q-VD-OPh) and their Final Concentrations: • hTNF-Fc (100 ng/ml)—produced by standard procedures as shown in Bossen et al., J. Biol. Chem., 2006, 281(20), 13964-13971. • Compound A (500 nM) —Smac mimetic, Tetralogic and SYNthesis med chem • Q-VD-OPh (10 μM) —MP Biomedicals
# (§8) The cellular assay was carried out according to the following steps: • 1. Each well was prepared by sequential addition of: • a. DMSO (control; columns 1-2 and 23-24) or compound in DMSO—addition was performed using acoustic transfer of nL volumes of stock compound to give final test concentrations of 36, 12, 4, 1.3, 0.44, 0.148, 0.049, 0.016, 0.005 and 0.002 μM. All wells were backfilled with DMSO to a final total volume in the well of 100 nL. • b. Following compound/DMSO addition in step (a), 40 μL of cell suspension (5×10^5 cells/mL) was added to provide a final cell concentration of 20,000 cells per well, and • c. Following cell addition in step (b), 10 μL of 5×TSQ cocktail (except to positive controls; columns 1 and 23) was added to each well. • 2. After 48 hours, plate was removed from the 37° C. incubator and equilibrated to room temperature for 45 minutes. • 3. 15 μL of room temperature CellTitre-Glo2™ (Promega™) was added to each well. • 4. Shook plates for 2 minutes (˜600 rpm) and incubated at room temperature for 15 minutes to allow signal to stabilise. • 5. Read luminescence readout on a plate reader.
# Percent viability was calculated for each compound according to equation (2): […]
# (§9) 10 point titration curves were fitted with the 4 parameter logistic nonlinear regression model and the IC50 reported reflect the inflection point of the curve for curve fitting.
# (§10) • Assay involving the TSQ cocktail (T: TNF; S: Smac mimetic; Q: Q-VD-OPh): TSQ treatment ensures that cells specifically undergo necroptotic cell death. TNF activates the TNF receptor, Smac mimetic directs the signal away from proinflammatory signaling and toward the RIPK1/RIPK3-mediated cell death pathways, and Q-VD-OPh ensures that the apoptotic response is blocked leaving only the programmed necrosis response. The compounds' activity (solution in DMSO) tested in this TSQ-induced assay was evaluated by determining the number of viable cells in culture by measuring the amount of ATP present as measured by CelltiterGlo. • Counter screen: In parallel, all compounds were tested for their ability to affect cell viability. The same U937 cells were treated with compound in DMSO without the TSQ cocktail. This counter screen enabled evaluation of off-target effects. In this case, cell viability was measured by CelltiterGlo.
# [4] = test system: U937 cells; assay: Counter screen: U937 cell viability without TSQ cocktail (off-target effect); set-up: species or system human; conditions: Homo sapiens, U-937, compound without TSQ cocktail, read-out: Off-target effect (IC50 cell-based assay)
# Experimental: as §7, §8, §9, §10
# [5] = target: human MLKL (full length) (Homo sapiens (Human), UniProt Q8NB16); assay: KINOMEscan binding assay, human MLKL (full length); conditions: equilibrium dissociation constant
# Experimental: as §1, §2, §3, §4, §5, §6
# Sequence of human RIPK1 (Q13546 whole entry): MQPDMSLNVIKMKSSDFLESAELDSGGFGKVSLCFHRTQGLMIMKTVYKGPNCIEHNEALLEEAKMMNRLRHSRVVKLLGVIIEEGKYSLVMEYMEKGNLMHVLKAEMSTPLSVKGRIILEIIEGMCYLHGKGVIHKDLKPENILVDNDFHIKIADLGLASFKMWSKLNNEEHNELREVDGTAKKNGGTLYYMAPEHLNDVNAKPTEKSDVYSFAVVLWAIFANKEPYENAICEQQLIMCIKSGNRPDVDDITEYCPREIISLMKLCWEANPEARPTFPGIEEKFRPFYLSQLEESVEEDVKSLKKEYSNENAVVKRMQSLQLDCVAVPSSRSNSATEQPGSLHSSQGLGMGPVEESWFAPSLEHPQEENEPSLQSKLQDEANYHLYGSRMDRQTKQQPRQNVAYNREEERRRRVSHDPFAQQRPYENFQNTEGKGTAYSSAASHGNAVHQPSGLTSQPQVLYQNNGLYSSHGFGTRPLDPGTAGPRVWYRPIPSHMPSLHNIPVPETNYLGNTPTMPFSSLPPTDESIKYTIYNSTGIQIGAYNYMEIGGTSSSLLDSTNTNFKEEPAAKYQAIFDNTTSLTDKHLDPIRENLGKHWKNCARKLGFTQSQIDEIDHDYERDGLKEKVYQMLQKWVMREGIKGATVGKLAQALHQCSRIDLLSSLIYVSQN
# Sequence of human MLKL (full length) (Q8NB16 whole entry): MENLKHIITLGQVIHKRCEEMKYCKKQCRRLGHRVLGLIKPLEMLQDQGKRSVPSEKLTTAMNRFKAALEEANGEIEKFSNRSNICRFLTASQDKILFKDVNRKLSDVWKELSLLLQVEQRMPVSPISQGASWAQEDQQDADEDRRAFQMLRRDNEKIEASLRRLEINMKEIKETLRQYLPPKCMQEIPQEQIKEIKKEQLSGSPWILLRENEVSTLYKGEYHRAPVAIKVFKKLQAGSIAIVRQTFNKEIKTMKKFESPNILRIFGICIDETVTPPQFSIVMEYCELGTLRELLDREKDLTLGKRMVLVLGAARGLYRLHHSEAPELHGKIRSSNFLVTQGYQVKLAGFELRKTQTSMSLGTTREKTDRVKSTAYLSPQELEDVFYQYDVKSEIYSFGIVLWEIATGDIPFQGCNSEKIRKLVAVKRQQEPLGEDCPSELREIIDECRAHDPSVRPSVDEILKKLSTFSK
# Sequence of human RIPK3 (Q9Y572 whole entry): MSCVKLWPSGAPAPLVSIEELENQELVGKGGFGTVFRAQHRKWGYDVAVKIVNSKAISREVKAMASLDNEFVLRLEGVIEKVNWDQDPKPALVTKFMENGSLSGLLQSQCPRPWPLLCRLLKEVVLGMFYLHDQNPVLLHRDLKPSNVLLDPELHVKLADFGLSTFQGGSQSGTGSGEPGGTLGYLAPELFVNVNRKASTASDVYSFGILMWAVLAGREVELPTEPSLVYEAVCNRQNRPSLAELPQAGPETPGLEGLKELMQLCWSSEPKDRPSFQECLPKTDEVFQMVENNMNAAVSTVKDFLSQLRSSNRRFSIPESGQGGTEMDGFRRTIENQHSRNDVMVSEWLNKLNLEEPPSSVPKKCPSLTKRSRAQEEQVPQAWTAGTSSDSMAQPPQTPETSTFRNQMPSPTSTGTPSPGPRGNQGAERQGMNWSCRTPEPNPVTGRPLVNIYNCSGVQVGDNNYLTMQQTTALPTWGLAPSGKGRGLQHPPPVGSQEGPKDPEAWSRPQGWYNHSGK
Kd [1] [µM],Kd [2] [µM],Kd [5] [µM],Structure (SMILES),IC50 [3] [µM],IC50 [4] [µM]
> 10,> 10,0.001 to 0.1,"C[C@H](Oc1cc(-c2nn(C)c3c(-c4cnn(C5CCOCC5)c4)cnc(N)c23)ccc1NS(=O)(=O)C(F)F)c1ccccc1F [Compound 118, (S)-N-(4-(4-amino-1-methyl-7-(1-(tetrahydro-2H-pyran-4-yl)-1H-pyrazol-4-yl)-1H-pyrazolo[4,3-c]pyridin-3-yl)-2-(1-(2-fluorophenyl)ethoxy)phenyl)-1,1-difluoromethanesulfonamide]",–,–
> 10,> 10,0.1 to 10,C[C@H](Oc1cc(-c2nn(C)c3c(-c4cnn(C5CCOCC5)c4)cnc(N)c23)ccc1NS(=O)(=O)N(C)C)c1ccc(F)cc1 [Compound 124],–,–
> 10,> 10,0.001 to 0.1,"C[C@H](Oc1cc(-c2nn(C)c3c(-c4cnn(C5CCOCC5)c4)cnc(N)c23)ccc1NS(=O)(=O)Cc1ccccc1)c1ccc(F)cc1 [Compound 125, (S)-N-(4-(4-amino-1-methyl-7-(1-(tetrahydro-2H-pyran-4-yl)-1H-pyrazol-4-yl)-1H-pyrazolo[4,3-c]pyridin-3-yl)-2-(1-(4-fluorophenyl)ethoxy)phenyl)-1-phenylmethanesulfonamide]",–,–
> 10,> 10,< 0.001,"Cn1nc(-c2ccc(NS(=O)(=O)C(F)F)c(OCc3cccc(Cl)c3)c2)c2c(N)ncc(-c3cnn(C4CCOCC4)c3)c21 [Compound 130, N-(4-(4-amino-1-methyl-7-(1-(tetrahydro-2H-pyran-4-yl)-1H-pyrazol-4-yl)-1H-pyrazolo[4,3-c]pyridin-3-yl)-2-((3-chlorobenzyl)oxy)phenyl)-1,1-difluoromethanesulfonamide]",–,–
> 10,> 10,< 0.001,"Cn1nc(-c2ccc(NS(=O)(=O)C(F)F)c(OCc3nccs3)c2)c2c(N)ncc(-c3cnn(C4CCOCC4)c3)c21 [Compound 143, N-(4-(4-amino-1-methyl-7-(1-(tetrahydro-2H-pyran-4-yl)-1H-pyrazol-4-yl)-1H-pyrazolo[4,3-c]pyridin-3-yl)-2-(thiazol-2-ylmethoxy)phenyl)-1,1-difluoromethanesulfonamide]",–,–
> 10,> 10,< 0.001,"CC(C)Oc1cc(-c2nn(C)c3c(-c4cnn(C5CCOCC5)c4)cnc(N)c23)ccc1NS(=O)(=O)C(F)F [Compound 144, N-(4-(4-amino-1-methyl-7-(1-(tetrahydro-2H-pyran-4-yl)-1H-pyrazol-4-yl)-1H-pyrazolo[4,3-c]pyridin-3-yl)-2-isopropoxyphenyl)-1,1-difluoromethanesulfonamide]",–,–
> 10,> 10,< 0.001,"Cn1nc(-c2ccc(NS(=O)(=O)C(F)F)c(OCc3ncco3)c2)c2c(N)ncc(-c3cnn(C4CCOCC4)c3)c21 [Compound 151, N-(4-(4-amino-1-methyl-7-(1-(tetrahydro-2H-pyran-4-yl)-1H-pyrazol-4-yl)-1H-pyrazolo[4,3-c]pyridin-3-yl)-2-(oxazol-2-ylmethoxy)phenyl)-1,1-difluoromethanesulfonamide]",–,–

# More lines, now with the values behind:
Structure (SMILES),Kd [1] [µM],Kd [2] [µM],Kd [5] [µM],IC50 [3] [µM],IC50 [4] [µM]
"CCS(=O)(=O)Nc1ccc(-c2nn(C)c3c(-c4cccnc4)cnc(N)c23)cc1OCc1ccc(F)cc1 [Compound 1, N-(4-(4-amino-1-methyl-7-(pyridin-3-yl)-1H-pyrazolo[4,3-c]pyridin-3-yl)-2-((4-fluorobenzyl)oxy)phenyl)ethanesulfonamide]",> 10,> 10,–,1 to 10,> 10
"Cn1nc(-c2ccc(NS(=O)(=O)C(F)F)c(OCc3ccc(F)cc3)c2)c2c(N)ncc(-c3cnn(CCO)c3)c21 [Compound 12, N-(4-(4-amino-7-(1-(2-hydroxyethyl)-1H-pyrazol-4-yl)-1-methyl-1H-pyrazolo[4,3-c]pyridin-3-yl)-2-((4-fluorobenzyl)oxy)phenyl)-1,1-difluoromethanesulfonamide]",–,–,–,1 to 10,> 10
"Cn1nc(-c2ccc(NS(=O)(=O)C(F)F)c(OCc3ccc(F)cc3)c2)c2c(N)ncc(-c3ccncc3)c21 [Compound 14, N-(4-(4-amino-1-methyl-7-(pyridin-4-yl)-1H-pyrazolo[4,3-c]pyridin-3-yl)-2-((4-fluorobenzyl)oxy)phenyl)-1,1-difluoromethanesulfonamide]",–,–,–,1 to 10,> 10
"Cc1cnccc1-c1cnc(N)c2c(-c3ccc(NS(=O)(=O)C(F)F)c(O[C@@H](C)c4ccc(F)cc4)c3)nn(C)c12 [Compound 32, (S)-N-(4-(4-amino-1-methyl-7-(3-methylpyridin-4-yl)-1H-pyrazolo[4,3-c]pyridin-3-yl)-2-(1-(4-fluorophenyl)ethoxy)phenyl)-1,1-difluoromethanesulfonamide]",–,–,–,1 to 10,> 10
"CCS(=O)(=O)Nc1ccc(-c2cccc3[nH]nc(N)c23)cc1OCc1ccc(F)cc1 [Compound 62, N-(4-(3-Amino-1H-indazol-4-yl)-2-((4-fluorophenyl)methoxy)phenyl)ethane-1-sulfonamide]",–,–,–,1 to 10,> 10
"COc1ccc([C@H](C)Oc2cc(-c3nn(C)c4c(-c5cnn(C6CCOCC6)c5)cnc(N)c34)ccc2NS(=O)(=O)C(F)F)cc1 [Compound 129, (S)-N-(4-(4-amino-1-methyl-7-(1-(tetrahydro-2H-pyran-4-yl)-1H-pyrazol-4-yl)-1H-pyrazolo[4,3-c]pyridin-3-yl)-2-(1-(4-methoxyphenyl)ethoxy)phenyl)-1,1-difluoromethanesulfonamide]",–,–,–,0.01 to 1,> 10
"Cn1nc(-c2ccc(NS(=O)(=O)C(F)F)c(OCc3ccc(Cl)cn3)c2)c2c(N)ncc(-c3cnn(C4CCOCC4)c3)c21 [Compound 136, N-(4-(4-amino-1-methyl-7-(1-(tetrahydro-2H-pyran-4-yl)-1H-pyrazol-4-yl)-1H-pyrazolo[4,3-c]pyridin-3-yl)-2-((5-chloropyridin-2-yl)methoxy)phenyl)-1,1-difluoromethanesulfonamide]",–,–,–,0.01 to 1,> 10
"C[C@H](Oc1cc(-c2nn(C)c3c(-c4cnn(C5CCC(C(=O)O)CC5)c4)cnc(N)c23)ccc1NS(=O)(=O)C(F)F)c1ccc(F)cc1 (stereo partly drawn) [Compound 173, 4-(4-{4-amino-3-[4-(difluoromethanesulfonamido)-3-[(1S)-1-(4-fluorophenyl)ethoxy]phenyl]-1-methyl-1H-pyrazolo[4,3-c]pyridin-7-yl}-1H-pyrazol-1-yl)cyclohexane-1-carboxylic acid]",–,–,–,1 to 10,> 10
